Active and inactive are the calls of the source. No cut-off for these calls is given here.
Experiments:
[1] = (§1) Compound was tested for functional dopamine antagonism in normalization assay (i.e. AS: reversal of apomorphine induced swimming ED50s in mg/kg orally); settings: po
[2] = molecular target: D(2) dopamine receptor (Homo sapiens) (UniProt P14416); experiment: Compound was tested for dopamine D2 (spiroperidol) receptor binding affinity, at 5000 nM concentration
[3] = molecular target: D(2) dopamine receptor (Homo sapiens) (UniProt P14416); experiment: Compound was tested for dopamine D2 (spiroperidol) receptor binding affinity at 2500 nM concentration
[4] = molecular target: Serotonin 2 (5-HT2) receptor (Homo sapiens) (UniProt P41595+P28223+P28335)
Description: 5-hydroxytryptamine 2 receptor binding affinity

[5] = molecular target: D(1A) dopamine receptor (Homo sapiens) (UniProt P21728); experiment: Compound was tested for dopamine D1 (SCH-23390) receptor binding affinity, at 2500 nM concentration
[6] = molecular target: D(2) dopamine receptor (Homo sapiens) (UniProt P14416); experiment: Dopamine D2 (spiroperidol) receptor binding affinity
[7] = molecular target: D(1A) dopamine receptor (Homo sapiens) (UniProt P21728)
Description: Dopamine D1 (SCH-23390) receptor binding affinity

Rattus norvegicus = experiment: as §1; settings: po
[8] = molecular target: D(2) dopamine receptor (Homo sapiens) (UniProt P14416); experiment: Compound was tested for dopamine D2 (spiroperidol) receptor binding affinity; Not active
[9] = molecular target: D(1A) dopamine receptor (Homo sapiens) (UniProt P21728); experiment: Compound was tested for dopamine D1 (SCH-23390) receptor binding affinity; Not active
[10] = molecular target: D(1A) dopamine receptor (Homo sapiens) (UniProt P21728); experiment: Compound was tested for dopamine D1 (SCH-23390) receptor binding affinity, at 1000 nM concentration

D(1A) dopamine receptor (Homo sapiens), sequence (P21728 whole entry): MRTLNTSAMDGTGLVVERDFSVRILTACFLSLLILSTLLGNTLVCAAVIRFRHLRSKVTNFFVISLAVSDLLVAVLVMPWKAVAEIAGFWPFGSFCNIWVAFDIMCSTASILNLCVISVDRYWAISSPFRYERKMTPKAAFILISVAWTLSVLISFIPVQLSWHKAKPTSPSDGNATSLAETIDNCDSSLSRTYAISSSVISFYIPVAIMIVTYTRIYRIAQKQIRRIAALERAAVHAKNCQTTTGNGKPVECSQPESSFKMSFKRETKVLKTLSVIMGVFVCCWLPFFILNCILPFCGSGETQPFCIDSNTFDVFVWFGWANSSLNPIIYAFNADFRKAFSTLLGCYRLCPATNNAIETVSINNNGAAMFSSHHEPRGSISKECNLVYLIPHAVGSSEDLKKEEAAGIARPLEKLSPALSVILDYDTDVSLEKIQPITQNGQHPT
Serotonin 2 (5-HT2) receptor (Homo sapiens), sequence (P28223 whole entry, looked up): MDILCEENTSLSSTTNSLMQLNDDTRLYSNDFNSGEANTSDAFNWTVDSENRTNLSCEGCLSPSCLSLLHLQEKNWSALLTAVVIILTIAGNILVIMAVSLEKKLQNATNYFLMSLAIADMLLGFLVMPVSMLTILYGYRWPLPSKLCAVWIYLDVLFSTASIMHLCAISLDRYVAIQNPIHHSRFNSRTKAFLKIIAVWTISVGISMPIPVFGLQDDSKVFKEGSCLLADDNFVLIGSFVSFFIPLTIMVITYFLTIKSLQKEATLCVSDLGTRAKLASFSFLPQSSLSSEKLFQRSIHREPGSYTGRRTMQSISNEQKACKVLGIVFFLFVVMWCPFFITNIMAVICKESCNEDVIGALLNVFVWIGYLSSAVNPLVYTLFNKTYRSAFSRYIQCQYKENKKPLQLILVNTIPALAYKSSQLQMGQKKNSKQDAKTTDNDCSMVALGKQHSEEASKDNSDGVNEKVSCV
Serotonin 2 (5-HT2) receptor (Homo sapiens), sequence (P28335 whole entry, looked up): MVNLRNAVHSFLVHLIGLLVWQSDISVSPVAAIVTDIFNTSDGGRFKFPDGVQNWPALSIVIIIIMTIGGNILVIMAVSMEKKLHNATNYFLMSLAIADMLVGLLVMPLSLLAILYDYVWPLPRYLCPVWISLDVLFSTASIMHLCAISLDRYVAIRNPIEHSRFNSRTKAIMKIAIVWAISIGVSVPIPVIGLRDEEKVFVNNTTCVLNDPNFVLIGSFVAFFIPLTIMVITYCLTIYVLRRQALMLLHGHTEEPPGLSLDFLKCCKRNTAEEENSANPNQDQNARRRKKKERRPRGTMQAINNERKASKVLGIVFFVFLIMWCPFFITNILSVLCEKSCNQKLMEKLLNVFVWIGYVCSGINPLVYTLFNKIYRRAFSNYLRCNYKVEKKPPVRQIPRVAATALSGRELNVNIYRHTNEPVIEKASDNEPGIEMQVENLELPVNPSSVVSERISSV
Serotonin 2 (5-HT2) receptor (Homo sapiens), sequence (P41595 whole entry, looked up): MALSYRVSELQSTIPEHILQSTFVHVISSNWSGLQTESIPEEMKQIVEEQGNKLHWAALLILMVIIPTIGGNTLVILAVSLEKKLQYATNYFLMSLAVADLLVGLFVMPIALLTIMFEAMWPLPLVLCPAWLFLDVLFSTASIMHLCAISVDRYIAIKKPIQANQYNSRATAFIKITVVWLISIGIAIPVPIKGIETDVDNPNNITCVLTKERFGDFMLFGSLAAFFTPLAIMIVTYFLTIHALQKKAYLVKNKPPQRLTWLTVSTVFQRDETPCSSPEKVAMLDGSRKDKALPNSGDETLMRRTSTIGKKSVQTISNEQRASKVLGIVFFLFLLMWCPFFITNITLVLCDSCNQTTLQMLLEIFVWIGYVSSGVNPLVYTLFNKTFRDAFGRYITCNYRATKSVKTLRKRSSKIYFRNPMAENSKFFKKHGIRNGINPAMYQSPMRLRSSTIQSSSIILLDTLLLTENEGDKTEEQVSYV
D(2) dopamine receptor (Homo sapiens), sequence (P14416 whole entry): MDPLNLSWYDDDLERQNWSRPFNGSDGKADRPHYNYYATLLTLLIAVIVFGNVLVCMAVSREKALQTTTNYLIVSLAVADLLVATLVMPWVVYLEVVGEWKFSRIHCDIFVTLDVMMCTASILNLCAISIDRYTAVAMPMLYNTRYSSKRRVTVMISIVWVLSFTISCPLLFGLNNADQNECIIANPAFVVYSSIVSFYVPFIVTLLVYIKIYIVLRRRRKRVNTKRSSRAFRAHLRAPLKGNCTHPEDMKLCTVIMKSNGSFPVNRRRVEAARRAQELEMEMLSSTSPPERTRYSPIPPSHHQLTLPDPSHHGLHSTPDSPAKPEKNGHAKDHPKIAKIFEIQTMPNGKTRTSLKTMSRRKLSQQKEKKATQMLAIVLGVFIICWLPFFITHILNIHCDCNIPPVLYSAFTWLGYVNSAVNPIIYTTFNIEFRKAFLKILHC

Structure (SMILES) | Binding affinity [4] [nM] | Binding affinity [6] [nM] | Binding affinity [7] [nM] | ED50 [1] [mg/kg] | further results
CN1CCN(C(=O)C23CC(c4ccccc42)c2ccccc23)CC1 | – | – | – | > 80 | inhibition [2]: 0%
Clc1ccc2c(c1)C1(CN3CCC(Nc4ncccn4)CC3)CC2c2ccccc21 (centres undefined) | 2 | 49 | 351 | 5 | –
c1ccc2c(c1)C1CC2(CNCCCN2CCOCC2)c2ccccc21 | 21 | 222 | 349 | > 80 | –
CCOC(OCC)C(=O)NC1CCN(CC23CC(c4ccccc42)c2ccc(Cl)cc23)CC1 (centres undefined) | 40 | 25 | 76 | 2.5 | –
CN1CCN(C2=Nc3cc(Cl)ccc3Nc3ccccc32)CC1 [CLOZAPINE] | – | – | – | – | ED50 (Rattus norvegicus): 40 mg/kg
CC[S+]([O-])c1ncccc1C1(O)CCN(CC23CC(c4ccccc42)c2ccccc23)CC1 (centres undefined) | 39 | 42 | 13 | 0.6 | –
NCC12CC(c3ccccc31)c1ccccc12 | – | – | – | > 80 | Binding affinity [8]: inactive; Binding affinity [9]: inactive
CC(C)(C)C1(O)CCN(CC23CC(c4ccccc42)c2ccc(Cl)cc23)CC1 (centres undefined) | 1 | 5 | 7 | 0.6 | –
c1cnc(NCCCNCC23CC(c4ccccc42)c2ccccc23)nc1 | 227 | 265 | 132 | > 80 | –
c1ccc2c(c1)C1CC2(CN2CCC(N3CCOCC3)CC2)c2ccccc21 | – | 57 | – | 10 | inhibition [10]: 17%

Further lines, with some results ahead:

Binding affinity [4] [nM] | Binding affinity [6] [nM] | Binding affinity [7] [nM] | Structure (SMILES) | ED50 [1] [mg/kg] | further results
314 | – | – | CN1CCN(CC23CC(c4ccccc42)c2ccccc23)CC1 | > 80 | inhibition [3]: 18%; inhibition [5]: 14%
4 | 14 | 63 | O[C@@H](c1cccnc1)C1CCN(CC23CC(c4ccccc42)c2ccc(Cl)cc23)CC1 (some centres undefined) | 5 | –
11 | 36 | 60 | C[C@@H]1CN(CCCNCC23CC(c4ccccc42)c2ccccc23)C[C@@H](C)O1 | > 80 | –
84 | 101 | 610 | c1ccc(Cn2cncc2CCNCC23CC(c4ccccc42)c2ccccc23)cc1 | 80 | –

From ChEMBL document CHEMBL1128790, “Putative atypical antipsychotics with mixed dopaminergic (D1, D2) and serotonergic (5HT2) activity: The design evolution of ZD3638” (1995)
